Experimental data as given in ChEMBL document CHEMBL1201862, “PubChem BioAssay data set” (2004).
Calls of active or inactive are those of the source.

How the values were obtained:
HEK293 [1] = test: optical interference in Abeta FP readout, dose response, artefact control for IDE activator project, biochemical, fluorescence polarization (AID 588442); format: functional, cell-based; settings: Homo sapiens
Insulin-degrading enzyme [2] = target: T1, Insulin-degrading enzyme (Homo sapiens, UniProt P14735); test: activators of recombinant IDE enzyme, dose response, counter-screen for IDE activator project, biochemical, fluorescence polarization (AID 588681)
HEK293 [3] = test: HEK cell cytotoxicity by LDH release, dose response, cytotoxicity control for IDE activator project, fluorescence, HEK cells (AID 588440); format: functional, cell-based; settings: Homo sapiens;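 also: cytotoxicity by LDH release measuring loss of membrane integrity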
Insulin-degrading enzyme [4] = target: T1, Insulin-degrading enzyme; test: activators of endogenous IDE in HEK cells, dose response, cell-based, fluorescence polarization (AID 588439); format: functional
HEK293 [5] = test: cells; settings: Homo sapiens
[6] = target: Protein disulfide-isomerase (Homo sapiens, UniProt P07237); test: PDI inhibitors, insulin aggregation turbidity, dose response, biochemical, absorbance, cherry-picked samples (AID 602350); format: functional
Vero = test: cells; format: functional; settings: Chlorocebus sabaeus
HEK293 [7] = test: cells; settings: Homo sapiens; remark: listed apart in the source
[8] = target: Inhibitor of nuclear factor kappa-B kinase subunit epsilon (Homo sapiens, UniProt Q14164); test: Navigating the Kinome. Panel member name: IKBKE; format: functional
[9] = target: Vascular endothelial growth factor receptor 1 (Homo sapiens, UniProt P17948); format: functional;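 also: measured within a kinome-wide profiling panel, FLT1 as the panel member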
[10] = target: Glycogen synthase kinase-3 beta (Homo sapiens, UniProt P49841); format: functional;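 also: value comes from a broad kinome profiling panel, with GSK3B as the panel member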
[11] = target: Mitogen-activated protein kinase 9 (Homo sapiens, UniProt P45984); format: functional;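 also: value from a kinome panel profiling assay, MAPK9 panel entry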
[12] = target: Dual specificity tyrosine-phosphorylation-regulated kinase 1A (Homo sapiens, UniProt Q13627); format: functional;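 also: measured against DYRK1A as one member of a broad kinome profiling panel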
[13] = target: Leukocyte tyrosine kinase receptor (Homo sapiens, UniProt P29376); test: Navigating the Kinome. Panel member name: LTK; format: functional
[14] = target: Fibroblast growth factor receptor 1 (Homo sapiens, UniProt P11362); format: functional
Aurora kinase B = Aurora kinase B (Homo sapiens, UniProt Q96GD4); format: functional
LIM domain kinase 1 = LIM domain kinase 1 (Homo sapiens, UniProt P53667); test: Navigating the Kinome. Panel member name: LIMK1; format: functional
[15] = target: Serine/threonine-protein kinase D3 (Homo sapiens, UniProt O94806); format: functional;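 also: determined within a kinase panel screen, with PRKCN as the panel member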
[16] = target: Mitogen-activated protein kinase 8 (Homo sapiens, UniProt P45983); format: functional;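 also: value comes from one member of a kinome-wide kinase profiling panel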
[17] = target: Serine/threonine-protein kinase Chk1 (Homo sapiens, UniProt O14757); format: functional;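 also: measured as one member of a kinome-wide kinase profiling panel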
Focal adhesion kinase 1 = Focal adhesion kinase 1 (Homo sapiens, UniProt Q05397); format: functional;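 also: measured as one member of a kinome panel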
[18] = target: Calcium/calmodulin-dependent protein kinase type II subunit alpha (Homo sapiens, UniProt Q9UQM7); test: Navigating the Kinome. Panel member name: CAMK2A; format: functional
[19] = target: Insulin-like growth factor 1 receptor (Homo sapiens, UniProt P08069); test: Navigating the Kinome. Panel member name: IGF1R; format: functional
[20] = target: Cyclin-dependent kinase 9 (Homo sapiens, UniProt P50750); format: functional;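 also: value from the CDK9 entry of a kinome-spanning kinase panel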
[21] = target: Platelet-derived growth factor receptor alpha (Homo sapiens, UniProt P16234); test: Navigating the Kinome. Panel member name: PDGFRA; format: functional
Aurora kinase A = Aurora kinase A (Homo sapiens, UniProt O14965); format: functional;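 also: value from the Navigating the Kinome kinase panel profiling, panel entry STK6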
[22] = target: Protein kinase C theta type (Homo sapiens, UniProt Q04759); test: Navigating the Kinome. Panel member name: PRKCQ; format: functional
[23] = target: Tyrosine-protein kinase ABL1 (Homo sapiens, UniProt P00519); format: functional
Activin receptor type-1 = Activin receptor type-1 (Homo sapiens, UniProt Q04771); test: Navigating the Kinome. Panel member name: ACVR1; format: functional
[24] = target: Proto-oncogene tyrosine-protein kinase receptor Ret (Homo sapiens, UniProt P07949); format: functional;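 also: measured within a kinome-wide profiling panel, RET as the panel member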
[25] = target: Casein kinase I isoform alpha (Homo sapiens, UniProt P48729); format: functional
[26] = target: Dual specificity mitogen-activated protein kinase kinase 1 (Homo sapiens, UniProt Q02750); test: Navigating the Kinome. Panel member name: MAP2K1; format: functional
[27] = target: BDNF/NT-3 growth factors receptor (Homo sapiens, UniProt Q16620); format: functional;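 also: NTRK2 measured as one member of a broad kinome-wide kinase profiling panel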
[28] = target: Mitogen-activated protein kinase kinase kinase kinase 2 (Homo sapiens, UniProt Q12851); format: functional;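 also: measured as one member of a kinome-wide kinase panel, with MAP4K2 as the panel entry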
[29] = target: Cyclin-dependent kinase 7 (Homo sapiens, UniProt P50613); format: functional;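 also: value comes from a kinome-wide kinase profiling panel in which CDK7 is one member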
[30] = target: Vascular endothelial growth factor receptor 2 (Homo sapiens, UniProt P35968); format: functional
[31] = target: cAMP-dependent protein kinase catalytic subunit PRKX (Homo sapiens, UniProt P51817); format: functional
[32] = target: Tyrosine-protein kinase receptor TYRO3 (Homo sapiens, UniProt Q06418); format: functional;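 also: TYRO3 value obtained as one member of a kinome-wide profiling panel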
[33] = target: Tyrosine-protein kinase Lck (Homo sapiens, UniProt P06239); format: functional;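 also: lck was assayed as one member of a kinase panel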
[34] = target: Death-associated protein kinase 3 (Homo sapiens, UniProt O43293); format: functional;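 also: measured as one member of a kinome-wide profiling panel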
[35] = target: Serine/threonine-protein kinase pim-1 (Homo sapiens, UniProt P11309); format: functional
[36] = target: Dual specificity tyrosine-phosphorylation-regulated kinase 1B (Homo sapiens, UniProt Q9Y463); test: Navigating the Kinome. Panel member name: DYRK1B; format: functional
[37] = target: Macrophage-stimulating protein receptor (Homo sapiens, UniProt Q04912); test: Navigating the Kinome. Panel member name: MST1R; format: functional
[38] = target: Tyrosine-protein kinase Fyn (Homo sapiens, UniProt P06241); format: functional
[39] = target: cAMP-dependent protein kinase catalytic subunit alpha (Homo sapiens, UniProt P17612); format: functional
[40] = target: Dual specificity mitogen-activated protein kinase kinase 2 (Homo sapiens, UniProt P36507); test: Navigating the Kinome. Panel member name: MAP2K2; format: functional
[41] = target: Tyrosine-protein kinase JAK2 (Homo sapiens, UniProt O60674); format: functional;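 also: JAK2 tested as one member of a kinase panel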
[42] = target: Glycogen synthase kinase-3 alpha (Homo sapiens, UniProt P49840); format: functional;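 also: GSK3A result taken from a broad kinome-wide kinase panel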
[43] = target: Dual specificity protein kinase CLK2 (Homo sapiens, UniProt P49760); format: functional
Activated CDC42 kinase 1 = Activated CDC42 kinase 1 (Homo sapiens, UniProt Q07912); test: Navigating the Kinome. Panel member name: ACK1; format: functional
[44] = target: Serine/threonine-protein kinase TAO1 (Homo sapiens, UniProt Q7L7X3); format: functional
[45] = target: Cyclin-dependent kinase 5 (Homo sapiens, UniProt Q00535); format: functional;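 also: CDK5 measured as one member of a kinase profiling panel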
[46] = target: Leucine-rich repeat serine/threonine-protein kinase 2 (Homo sapiens, UniProt Q5S007); format: functional;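 also: value from a broad kinome-wide panel profiling study in which LRRK2 was one of the kinases tested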
[47] = target: Macrophage colony-stimulating factor 1 receptor (Homo sapiens, UniProt P07333); format: functional;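 also: value comes from the Navigating the Kinome screening panel, CSF1R member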
[48] = target: Tyrosine-protein kinase JAK3 (Homo sapiens, UniProt P52333); format: functional
[49] = target: Dual specificity protein kinase CLK4 (Homo sapiens, UniProt Q9HAZ1); format: functional
[50] = target: Rho-associated protein kinase 1 (Homo sapiens, UniProt Q13464); format: functional;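 also: measured within a broad kinome-wide panel profiling many kinases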
[51] = target: ALK tyrosine kinase receptor (Homo sapiens, UniProt Q9UM73); format: functional;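 also: ALK tested as one member of a kinase panel screen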
[52] = target: Serine/threonine-protein kinase TBK1 (Homo sapiens, UniProt Q9UHD2); test: Navigating the Kinome. Panel member name: TBK1; format: functional
[53] = target: Mitogen-activated protein kinase kinase kinase kinase 4 (Homo sapiens, UniProt O95819); format: functional
[54] = target: Cyclin-dependent kinase 8 (Homo sapiens, UniProt P49336); test: Navigating the Kinome. Panel member name: CDK8; format: functional
[55] = target: Serine/threonine-protein kinase PAK 4 (Homo sapiens, UniProt O96013); format: functional;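 also: value obtained within a kinome profiling panel in which PAK4 was one of the panel members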
[56] = target: 5'-AMP-activated protein kinase catalytic subunit alpha-1 (Homo sapiens, UniProt Q13131); format: functional
[57] = target: Casein kinase I isoform delta (Homo sapiens, UniProt P48730); format: functional;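 also: measured as one member (CSNK1D) of a kinome panel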
[58] = target: Cyclin-dependent kinase 19 (Homo sapiens, UniProt Q9BWU1); test: Navigating the Kinome. Panel member name: CDC2L6; format: functional
[59] = target: Mitogen-activated protein kinase 14 (Homo sapiens, UniProt Q16539); format: functional;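 also: part of a kinome-wide panel, MAPK14 entry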
[60] = target: Platelet-derived growth factor receptor beta (Homo sapiens, UniProt P09619); format: functional;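 also: value comes from a kinome panel, with PDGFRB tested as one panel member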
[61] = target: DNA dC->dU-editing enzyme APOBEC-3G (Homo sapiens, UniProt Q9HC16); test: APOBEC3G deaminase inhibitors, SAR follow-up, biochemical, fluorescence, single-stranded DNA substrate (AID 602136); format: functional; settings: read-out: IC50_Mean
[62] = target: DNA dC->dU-editing enzyme APOBEC-3A (Homo sapiens, UniProt P31941); test: SAR analysis of small molecule inhibitors of APOBEC3A DNA Deaminase via a fluorescence-based single-stranded DNA deaminase assay.; format: functional; settings: read-out: IC50_Mean

Sequence of Dual specificity protein kinase CLK4 (Q9HAZ1 whole entry): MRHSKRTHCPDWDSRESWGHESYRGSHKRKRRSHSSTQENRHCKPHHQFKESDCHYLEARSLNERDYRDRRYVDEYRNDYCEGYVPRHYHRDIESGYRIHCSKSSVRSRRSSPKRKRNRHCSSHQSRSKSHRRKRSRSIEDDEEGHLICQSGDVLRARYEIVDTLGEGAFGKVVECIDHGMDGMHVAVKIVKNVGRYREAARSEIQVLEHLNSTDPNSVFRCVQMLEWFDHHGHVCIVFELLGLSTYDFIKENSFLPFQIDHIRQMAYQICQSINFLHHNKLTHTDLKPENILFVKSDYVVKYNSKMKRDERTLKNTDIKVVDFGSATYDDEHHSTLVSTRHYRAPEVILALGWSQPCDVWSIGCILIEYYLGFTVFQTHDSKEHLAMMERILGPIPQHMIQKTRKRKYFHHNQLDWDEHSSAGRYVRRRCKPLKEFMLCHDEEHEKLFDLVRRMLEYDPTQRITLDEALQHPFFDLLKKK
Sequence of Leucine-rich repeat serine/threonine-protein kinase 2 (Q5S007 whole entry): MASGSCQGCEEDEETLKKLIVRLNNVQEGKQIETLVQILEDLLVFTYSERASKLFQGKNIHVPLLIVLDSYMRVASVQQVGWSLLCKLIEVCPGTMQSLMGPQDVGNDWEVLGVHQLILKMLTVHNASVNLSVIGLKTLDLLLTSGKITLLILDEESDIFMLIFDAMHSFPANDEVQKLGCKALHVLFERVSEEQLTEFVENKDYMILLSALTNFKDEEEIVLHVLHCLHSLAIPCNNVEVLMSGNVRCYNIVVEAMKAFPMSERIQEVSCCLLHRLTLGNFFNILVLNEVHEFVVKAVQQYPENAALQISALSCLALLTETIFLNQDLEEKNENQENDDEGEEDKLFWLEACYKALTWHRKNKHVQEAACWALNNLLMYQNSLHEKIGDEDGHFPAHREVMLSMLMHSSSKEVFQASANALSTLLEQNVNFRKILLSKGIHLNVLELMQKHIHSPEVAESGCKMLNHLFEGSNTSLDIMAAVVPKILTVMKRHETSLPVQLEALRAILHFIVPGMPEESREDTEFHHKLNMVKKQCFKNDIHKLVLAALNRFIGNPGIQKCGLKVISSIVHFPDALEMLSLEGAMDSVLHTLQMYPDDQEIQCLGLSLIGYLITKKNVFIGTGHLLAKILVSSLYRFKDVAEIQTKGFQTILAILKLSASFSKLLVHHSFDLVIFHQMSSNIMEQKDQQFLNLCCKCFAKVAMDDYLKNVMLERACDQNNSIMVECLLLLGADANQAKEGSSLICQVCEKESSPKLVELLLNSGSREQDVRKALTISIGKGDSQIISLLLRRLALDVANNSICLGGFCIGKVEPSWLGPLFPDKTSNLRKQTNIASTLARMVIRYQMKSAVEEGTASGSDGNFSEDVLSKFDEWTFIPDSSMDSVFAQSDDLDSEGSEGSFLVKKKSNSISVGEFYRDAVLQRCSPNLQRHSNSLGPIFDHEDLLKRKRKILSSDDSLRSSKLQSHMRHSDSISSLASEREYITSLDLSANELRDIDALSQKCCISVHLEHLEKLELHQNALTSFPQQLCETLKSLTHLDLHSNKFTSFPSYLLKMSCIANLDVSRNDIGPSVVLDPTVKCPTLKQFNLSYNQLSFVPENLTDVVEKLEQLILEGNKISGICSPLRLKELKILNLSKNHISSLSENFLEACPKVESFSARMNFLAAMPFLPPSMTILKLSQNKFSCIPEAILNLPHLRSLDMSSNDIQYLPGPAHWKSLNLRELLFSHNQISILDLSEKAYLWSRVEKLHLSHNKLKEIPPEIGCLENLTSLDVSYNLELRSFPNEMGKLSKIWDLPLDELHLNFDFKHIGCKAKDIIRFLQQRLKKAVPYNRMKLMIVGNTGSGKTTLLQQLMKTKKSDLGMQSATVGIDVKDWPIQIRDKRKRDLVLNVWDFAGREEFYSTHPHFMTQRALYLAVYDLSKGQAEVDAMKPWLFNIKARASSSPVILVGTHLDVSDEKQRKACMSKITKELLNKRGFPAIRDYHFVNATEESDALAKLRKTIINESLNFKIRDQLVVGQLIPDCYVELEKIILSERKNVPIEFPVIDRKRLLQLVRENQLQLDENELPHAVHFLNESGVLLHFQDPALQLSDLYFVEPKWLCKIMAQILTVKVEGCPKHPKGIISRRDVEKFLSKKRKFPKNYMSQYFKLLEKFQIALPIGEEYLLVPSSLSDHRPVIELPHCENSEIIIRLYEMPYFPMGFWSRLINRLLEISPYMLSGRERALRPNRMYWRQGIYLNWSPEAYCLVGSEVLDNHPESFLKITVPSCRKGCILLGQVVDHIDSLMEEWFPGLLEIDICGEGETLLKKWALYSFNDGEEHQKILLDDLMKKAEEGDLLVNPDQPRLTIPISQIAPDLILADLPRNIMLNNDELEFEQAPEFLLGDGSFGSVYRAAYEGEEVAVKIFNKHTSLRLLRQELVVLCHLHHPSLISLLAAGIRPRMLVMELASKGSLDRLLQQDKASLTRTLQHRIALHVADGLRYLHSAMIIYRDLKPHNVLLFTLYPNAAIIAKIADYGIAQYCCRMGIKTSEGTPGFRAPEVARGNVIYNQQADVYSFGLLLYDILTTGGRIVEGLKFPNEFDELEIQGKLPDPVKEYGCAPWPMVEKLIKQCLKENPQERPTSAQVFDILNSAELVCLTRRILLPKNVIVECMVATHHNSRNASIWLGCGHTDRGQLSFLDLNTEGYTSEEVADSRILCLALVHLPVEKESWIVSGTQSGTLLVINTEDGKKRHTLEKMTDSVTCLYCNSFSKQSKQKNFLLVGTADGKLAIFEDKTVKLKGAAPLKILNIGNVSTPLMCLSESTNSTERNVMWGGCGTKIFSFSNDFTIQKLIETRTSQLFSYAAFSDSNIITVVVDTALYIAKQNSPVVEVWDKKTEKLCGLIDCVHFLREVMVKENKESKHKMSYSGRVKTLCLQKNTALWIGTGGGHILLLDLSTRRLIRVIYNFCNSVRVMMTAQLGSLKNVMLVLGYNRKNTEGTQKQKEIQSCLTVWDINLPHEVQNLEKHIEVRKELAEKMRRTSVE
Sequence of Cyclin-dependent kinase 8 (P49336 whole entry): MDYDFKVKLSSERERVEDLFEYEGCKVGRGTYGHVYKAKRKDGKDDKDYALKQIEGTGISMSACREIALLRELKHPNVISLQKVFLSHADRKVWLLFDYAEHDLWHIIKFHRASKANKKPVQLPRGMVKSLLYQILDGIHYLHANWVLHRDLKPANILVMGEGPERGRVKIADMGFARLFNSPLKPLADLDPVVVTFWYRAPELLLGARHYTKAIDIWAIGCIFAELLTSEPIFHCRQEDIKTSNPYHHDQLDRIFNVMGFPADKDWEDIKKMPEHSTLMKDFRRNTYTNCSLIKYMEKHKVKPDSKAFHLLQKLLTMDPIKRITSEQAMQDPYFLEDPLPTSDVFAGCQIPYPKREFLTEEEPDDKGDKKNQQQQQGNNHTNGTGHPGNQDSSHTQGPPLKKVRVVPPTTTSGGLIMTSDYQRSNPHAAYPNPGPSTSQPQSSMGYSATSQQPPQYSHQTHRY
Sequence of Cyclin-dependent kinase 9 (P50750 whole entry): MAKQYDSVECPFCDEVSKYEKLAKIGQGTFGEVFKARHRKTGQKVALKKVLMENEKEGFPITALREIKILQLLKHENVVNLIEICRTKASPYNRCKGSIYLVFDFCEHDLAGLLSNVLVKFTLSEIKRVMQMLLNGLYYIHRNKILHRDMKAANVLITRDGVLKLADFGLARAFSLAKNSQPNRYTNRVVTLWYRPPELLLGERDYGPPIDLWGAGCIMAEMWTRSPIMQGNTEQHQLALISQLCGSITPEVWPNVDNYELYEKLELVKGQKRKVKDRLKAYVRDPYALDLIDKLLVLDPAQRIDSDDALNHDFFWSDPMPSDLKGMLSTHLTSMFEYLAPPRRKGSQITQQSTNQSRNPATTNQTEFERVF
Sequence of Mitogen-activated protein kinase kinase kinase kinase 4 (O95819 whole entry): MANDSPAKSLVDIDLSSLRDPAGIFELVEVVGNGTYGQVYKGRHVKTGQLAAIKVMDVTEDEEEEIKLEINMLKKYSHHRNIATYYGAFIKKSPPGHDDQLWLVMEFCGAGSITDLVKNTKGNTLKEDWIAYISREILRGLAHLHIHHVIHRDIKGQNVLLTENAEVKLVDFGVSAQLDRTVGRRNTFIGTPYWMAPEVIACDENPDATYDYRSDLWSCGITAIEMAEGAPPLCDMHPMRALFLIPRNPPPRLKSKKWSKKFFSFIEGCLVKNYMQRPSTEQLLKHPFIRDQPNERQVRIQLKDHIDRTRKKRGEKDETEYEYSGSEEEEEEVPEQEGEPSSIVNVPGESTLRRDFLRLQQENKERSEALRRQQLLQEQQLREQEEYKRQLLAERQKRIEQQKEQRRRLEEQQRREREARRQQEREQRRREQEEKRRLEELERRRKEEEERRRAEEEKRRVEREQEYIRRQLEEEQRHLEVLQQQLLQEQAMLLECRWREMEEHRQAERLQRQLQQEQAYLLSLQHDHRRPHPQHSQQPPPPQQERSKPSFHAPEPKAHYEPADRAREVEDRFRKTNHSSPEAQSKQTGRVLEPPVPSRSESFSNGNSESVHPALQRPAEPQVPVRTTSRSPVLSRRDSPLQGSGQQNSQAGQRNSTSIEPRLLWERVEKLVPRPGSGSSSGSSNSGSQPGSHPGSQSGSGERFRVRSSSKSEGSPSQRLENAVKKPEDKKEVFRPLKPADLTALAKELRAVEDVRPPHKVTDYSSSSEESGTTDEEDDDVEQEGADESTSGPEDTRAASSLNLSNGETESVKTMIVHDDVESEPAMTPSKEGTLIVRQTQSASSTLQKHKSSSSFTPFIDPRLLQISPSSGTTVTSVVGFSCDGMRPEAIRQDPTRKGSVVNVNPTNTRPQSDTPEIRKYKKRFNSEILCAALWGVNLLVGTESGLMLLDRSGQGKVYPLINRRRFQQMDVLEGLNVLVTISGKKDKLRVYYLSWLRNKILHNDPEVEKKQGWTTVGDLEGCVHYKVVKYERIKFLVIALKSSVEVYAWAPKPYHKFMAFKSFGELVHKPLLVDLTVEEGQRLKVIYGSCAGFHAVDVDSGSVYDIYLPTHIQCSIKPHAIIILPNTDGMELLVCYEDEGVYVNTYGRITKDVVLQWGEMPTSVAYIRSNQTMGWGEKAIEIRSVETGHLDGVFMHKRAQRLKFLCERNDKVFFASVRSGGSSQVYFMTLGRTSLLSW

How did the EC50 (HEK293 [1]) turn out when `CCCCCc1nnc(NC(=O)C2CCCO2)s1` (stereo unspecified) was run?
The EC50 was > 54.7 µM (inactive).

What about the EC50 (Insulin-degrading enzyme [2]) of the same compound?
The EC50 was > 54.7 µM (inactive).

And the IC50 (HEK293 [3])?
Its IC50 is > 89.1 µM (inactive).

What about the EC50 (Insulin-degrading enzyme [4]) of the same compound?
Its EC50 is > 54.7 µM (inactive).

Which results are given for `COC1/C=C/C=C(\C)Cc2cc(O)c(Cl)c(c2)N(C)C(=O)CC(OC(=O)C(C)C)C2(C)OC2C(C)C2CC1(O)NC(=O)O2` (stereo unspecified)?
EC50 (HEK293 [5]): > 59.7 µM (inactive); AC50 [6]: 9.59 µM (active); CC50 (Vero): < 0.05 µM (active); EC50 (HEK293 [7]): > 59.7 µM (inactive)

What does the source list for `Cc1n[nH]c2ccc(-c3cccnc3)cc12`?
Ki [8]: 20 µM (active); Ki [9]: 31.6 µM (active); Ki [10]: 3.98 µM (active); Ki [11]: 20 µM (active); Ki [12]: 0.0398 µM (active); Ki [13]: 3.16 µM (active); Ki [14]: 50.1 µM (active); Ki (Aurora kinase B): 10 µM (active); Ki (LIM domain kinase 1): 79.4 µM (active); Ki [15]: 2.51 µM (active); Ki [16]: 5.01 µM (active); Ki [17]: 63.1 µM (active); Ki (Focal adhesion kinase 1): 25.1 µM (active); Ki [18]: 12.6 µM (active); Ki [19]: 39.8 µM (active); Ki [20]: 0.794 µM (active); Ki [21]: 31.6 µM (active); Ki (Aurora kinase A): 15.8 µM (active); Ki [22]: 0.126 µM (active); Ki [23]: 25.1 µM (active); Ki (Activin receptor type-1): 3.98 µM (active); Ki [24]: 39.8 µM (active); Ki [25]: 7.94 µM (active); Ki [26]: 10 µM (active); Ki [27]: 79.4 µM (active); Ki [28]: 3.98 µM (active); Ki [29]: 7.94 µM (active); Ki [30]: 6.31 µM (active); Ki [31]: 6.31 µM (active); Ki [32]: 79.4 µM (active); Ki [33]: 63.1 µM (active); Ki [34]: 2 µM (active); Ki [35]: 7.94 µM (active); Ki [36]: 0.0126 µM (active); Ki [37]: 12.6 µM (active); Ki [38]: 79.4 µM (active); Ki [39]: 2.51 µM (active); Ki [40]: 10 µM (active); Ki [41]: 7.94 µM (active); Ki [42]: 3.98 µM (active); Ki [43]: 0.0631 µM (active); Ki (Activated CDC42 kinase 1): 50.1 µM (active); Ki [44]: 50.1 µM (active); Ki [45]: 0.126 µM (active); Ki [46]: 0.398 µM (active); Ki [47]: 31.6 µM (active); Ki [48]: 63.1 µM (active); Ki [49]: 0.002 µM (active); Ki [50]: 0.251 µM (active); Ki [51]: 12.6 µM (active); Ki [52]: 39.8 µM (active); Ki [53]: 2.51 µM (active); Ki [54]: 0.0251 µM (active); Ki [55]: 79.4 µM (active); Ki [56]: 20 µM (active)

With `CN1CCN(Cc2ccc3c(c2)-c2n[nH]c(=O)c4cccc(c24)O3)CC1` as the compound, how does the Ki [35] read?
Its Ki is 5.01 µM (active).

And the Ki [57]?
The Ki was 3.16 µM (active).

Which Ki [58] does the source give for `C(=Cc1ccc2nccn2n1)c1ccccc1` here?
Its Ki is > 100 µM (inactive).

And the Ki [12]?
The Ki was > 79.4 µM (inactive).

What about the Ki [59] of the same compound?
The Ki was 100 µM (active).

And the Ki [20]?
Its Ki is > 63.1 µM (inactive).

What about the Ki (Aurora kinase A) of the same compound?
The Ki was > 63.1 µM (inactive).

And the Ki [22]?
The Ki was > 100 µM (inactive).

And the Ki [60]?
The Ki was > 79.4 µM (inactive).

And the Ki [30]?
The Ki was > 100 µM (inactive).

What about the Ki [39] of the same compound?
Its Ki is 5.01 µM (active).

What about the Ki [46] of the same compound?
The Ki was 3.98 µM (active).

And the Ki [47]?
Its Ki is > 100 µM (inactive).

What about the Ki [49] of the same compound?
The Ki was 3.98 µM (active).

And the Ki [53]?
Its Ki is 7.94 µM (active).

And the Ki [54]?
Its Ki is 12.6 µM (active).

What does the source list for `COc1ccc2c(Cl)c(-c3nnc(SCC(=O)c4ccc(F)cc4)n3C)sc2c1`?
IC50 [61]: > 99 µM (inactive); IC50 [62]: > 99 µM (inactive)
